Marks after values point to notes of the source that are not given here.
Tests used:
COX-1 mRNA = test: Real-time PCR of inflamed paw tissue, COX-1 gene expression; assay type: in vivo, Mouse; details: paw tissue after formalin test; 2^-ΔΔCt method; means ± SD
COX-2 mRNA = test: Real-time PCR of inflamed paw tissue, COX-2 gene expression; assay type: in vivo, Mouse; details: paw tissue after formalin test; 2^-ΔΔCt method; means ± SD
LOX mRNA = test: Real-time PCR of inflamed paw tissue, LOX gene expression; assay type: in vivo, Mouse; details: paw tissue after formalin test, 2^-ΔΔCt method, means ± SD
stomach = test: Acute ulcerogenic side effect; assay type: in vivo; details: mice; for Abou Zeit Har Score (ulcer index): intraperitoneal, indomethacin 5 mg/kg, celecoxib 20 mg/kg, means ± SD; for Gastric mucosa finding (ulcers) on examination: stomach examined after sacrifice

## COc1ccc2c(c1)c(CC(=O)O)c(C)n2C(=O)c1ccc(Cl)cc1 [Indomethacin]
COX-1 mRNA
  COX-1 mRNA relative expression (real-time PCR): 0.82 ± 0.02
COX-2 mRNA
  COX-2 mRNA relative expression (real-time PCR): 0.17 ± 0.01^a
LOX mRNA
  LOX mRNA relative expression (real-time PCR): 1.32 ± 0.01
LOX mRNA; listed as indomethacin
  LOX mRNA relative expression (real-time PCR): not affected
stomach
  Abou Zeit Har Score (ulcer index): 11.2 ± 1.64
  Gastric mucosa finding (ulcers) on examination: large ulcers

## Cc1ccc(-c2cc(C(F)(F)F)nn2-c2ccc(S(N)(=O)=O)cc2)cc1 [Celecoxib]
stomach
  Abou Zeit Har Score (ulcer index): 0.6 ± 0.58
  Gastric mucosa finding (ulcers) on examination: preserved the integrity of the mucosa

From article PMC9377232 (Journal of Enzyme Inhibition and Medicinal Chemistry, 2022)
